Assay results from ChEMBL document CHEMBL4431395, “Cellular Activity of New Small Molecule Protein Arginine Deiminase 3 (PAD3) Inhibitors” (ACS Med Chem Lett, 2016).

Experiments:
[1] = target: T1, Protein-arginine deiminase type-1 (Homo sapiens, UniProt Q9ULC6); experiment: Inhibition of recombinant human 6His-tagged PAD1 assessed as reduction in residual activity preincubated for 15 mins followed by addition of N-benzoylated arginine ethyl ester hydrochloride measured after 15 mins by colder assay
T1 sequence (Q9ULC6 whole entry): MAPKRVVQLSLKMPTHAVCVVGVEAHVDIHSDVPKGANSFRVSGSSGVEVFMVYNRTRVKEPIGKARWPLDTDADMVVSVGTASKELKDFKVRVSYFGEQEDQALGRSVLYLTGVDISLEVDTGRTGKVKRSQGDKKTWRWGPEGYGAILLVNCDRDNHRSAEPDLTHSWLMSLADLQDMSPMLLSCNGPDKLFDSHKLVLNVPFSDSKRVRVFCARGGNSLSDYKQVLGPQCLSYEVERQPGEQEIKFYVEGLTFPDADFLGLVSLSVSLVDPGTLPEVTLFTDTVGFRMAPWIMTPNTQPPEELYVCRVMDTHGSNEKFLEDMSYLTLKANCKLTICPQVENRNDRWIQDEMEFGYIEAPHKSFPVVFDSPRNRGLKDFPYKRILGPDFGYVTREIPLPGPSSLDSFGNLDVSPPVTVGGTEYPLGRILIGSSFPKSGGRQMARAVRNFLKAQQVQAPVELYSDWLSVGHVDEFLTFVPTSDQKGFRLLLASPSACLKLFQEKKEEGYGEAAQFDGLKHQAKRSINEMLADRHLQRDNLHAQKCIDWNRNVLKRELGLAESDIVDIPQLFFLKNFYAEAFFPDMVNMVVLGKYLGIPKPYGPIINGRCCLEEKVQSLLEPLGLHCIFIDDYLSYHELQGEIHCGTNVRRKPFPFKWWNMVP

[2] = target: Protein-arginine deiminase type-2 (Homo sapiens, UniProt Q9Y2J8); experiment: Inhibition of recombinant human 6His-tagged PAD2 assessed as reduction in residual activity preincubated for 15 mins followed by addition of N-benzoylated arginine ethyl ester hydrochloride measured after 15 mins by colder assay
[3] = target: Protein-arginine deiminase type-4 (Homo sapiens, UniProt Q9UM07); experiment: Inhibition of recombinant human GST-tagged PAD4 expressed in Escherichia coli BL21-DE3 pLysS assessed as reduction in reduction in residual activity preincubated for 15 mins followed by addition of N-benzoylated arginine ethyl ester hydrochloride measured after 15 mins by colder assay
Chain of Protein-arginine deiminase type-4 (Q9UM07 whole entry): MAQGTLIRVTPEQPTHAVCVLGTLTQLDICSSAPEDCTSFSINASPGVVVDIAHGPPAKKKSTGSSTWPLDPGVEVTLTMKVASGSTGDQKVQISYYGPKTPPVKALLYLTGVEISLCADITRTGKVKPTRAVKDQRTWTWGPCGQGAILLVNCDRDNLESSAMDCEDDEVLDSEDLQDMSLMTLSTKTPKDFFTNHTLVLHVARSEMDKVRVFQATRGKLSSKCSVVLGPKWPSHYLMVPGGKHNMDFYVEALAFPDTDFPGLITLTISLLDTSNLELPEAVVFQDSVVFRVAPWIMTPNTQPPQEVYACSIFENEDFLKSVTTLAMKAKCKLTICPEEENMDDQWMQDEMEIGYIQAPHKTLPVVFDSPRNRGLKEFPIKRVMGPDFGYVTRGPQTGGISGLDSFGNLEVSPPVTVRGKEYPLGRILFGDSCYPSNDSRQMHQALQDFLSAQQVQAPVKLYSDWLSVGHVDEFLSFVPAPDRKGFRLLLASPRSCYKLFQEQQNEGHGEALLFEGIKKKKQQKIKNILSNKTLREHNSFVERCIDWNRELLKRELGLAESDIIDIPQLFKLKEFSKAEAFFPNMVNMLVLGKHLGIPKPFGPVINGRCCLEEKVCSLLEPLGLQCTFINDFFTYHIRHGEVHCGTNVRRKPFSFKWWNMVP

Chain of Protein-arginine deiminase type-2 (Q9Y2J8 whole entry): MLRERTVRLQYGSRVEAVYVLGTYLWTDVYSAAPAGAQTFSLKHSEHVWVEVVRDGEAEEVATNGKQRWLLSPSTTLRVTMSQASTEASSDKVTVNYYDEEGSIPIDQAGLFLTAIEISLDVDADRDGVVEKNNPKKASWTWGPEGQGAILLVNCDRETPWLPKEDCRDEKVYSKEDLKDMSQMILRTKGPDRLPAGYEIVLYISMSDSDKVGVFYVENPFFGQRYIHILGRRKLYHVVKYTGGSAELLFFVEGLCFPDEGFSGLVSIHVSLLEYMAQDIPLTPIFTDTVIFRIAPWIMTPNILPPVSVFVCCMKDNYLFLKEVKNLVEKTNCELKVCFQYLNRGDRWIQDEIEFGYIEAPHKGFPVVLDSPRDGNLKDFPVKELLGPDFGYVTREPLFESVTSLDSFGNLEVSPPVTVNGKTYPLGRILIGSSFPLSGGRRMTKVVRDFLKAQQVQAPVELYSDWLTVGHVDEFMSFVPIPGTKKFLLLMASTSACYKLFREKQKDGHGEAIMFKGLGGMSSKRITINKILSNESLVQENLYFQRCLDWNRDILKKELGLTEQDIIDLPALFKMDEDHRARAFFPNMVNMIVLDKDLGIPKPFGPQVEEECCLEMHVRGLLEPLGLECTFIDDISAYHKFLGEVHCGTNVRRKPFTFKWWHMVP

IC50 [1] | IC50 [2] | IC50 [3] | Compound
> 500 µM | 151 µM | – | N=C(CCl)NCCOC(=O)NCc1cccc(-c2ccccc2)c1
161 µM | – | – | N=C(CCl)NCCCc1nc(Cl)c(-c2cccc(-c3ccccc3)c2)[nH]1
408 µM | 153 µM | – | N=C(CCl)NCC#CC(=O)NCc1cccc(-c2ccccc2)c1
– | 140 µM | 129 µM | N=C(CCl)NCCNC(=O)NCc1cccc(-c2ccccc2)c1
294 µM | 110 µM | – | N=C(CCl)NCCCc1cn(-c2cccc(-c3ccccc3)c2)nn1
125 µM | – | – | N=C(CCl)NC/C=C/C(=O)NCc1cccc(-c2ccccc2)c1
